US10899732B2, “Substituted benzamides useful as sodium channel blockers” (GENENTECH, INC., priority 2015, dated 2021)

Assays:
NaV1.7 = molecular target: T1, NaV1.7 (Homo sapiens, UniProt Q15858); test: Patch voltage clamp electrophysiology assay (EP), NaV1.7 in HEK-293 cells; format: cell-based; settings: HEK-293, β1 coexpressed, held at -60 mV (inactivated state)
T1 construct: expression vector containing the full-length cDNA coding for the desired human sodium channel α-subunit; expressed in transfected cells; host or cells: HEK-293
T1 sequence (Q15858 1-1977 isoform Q15858-3): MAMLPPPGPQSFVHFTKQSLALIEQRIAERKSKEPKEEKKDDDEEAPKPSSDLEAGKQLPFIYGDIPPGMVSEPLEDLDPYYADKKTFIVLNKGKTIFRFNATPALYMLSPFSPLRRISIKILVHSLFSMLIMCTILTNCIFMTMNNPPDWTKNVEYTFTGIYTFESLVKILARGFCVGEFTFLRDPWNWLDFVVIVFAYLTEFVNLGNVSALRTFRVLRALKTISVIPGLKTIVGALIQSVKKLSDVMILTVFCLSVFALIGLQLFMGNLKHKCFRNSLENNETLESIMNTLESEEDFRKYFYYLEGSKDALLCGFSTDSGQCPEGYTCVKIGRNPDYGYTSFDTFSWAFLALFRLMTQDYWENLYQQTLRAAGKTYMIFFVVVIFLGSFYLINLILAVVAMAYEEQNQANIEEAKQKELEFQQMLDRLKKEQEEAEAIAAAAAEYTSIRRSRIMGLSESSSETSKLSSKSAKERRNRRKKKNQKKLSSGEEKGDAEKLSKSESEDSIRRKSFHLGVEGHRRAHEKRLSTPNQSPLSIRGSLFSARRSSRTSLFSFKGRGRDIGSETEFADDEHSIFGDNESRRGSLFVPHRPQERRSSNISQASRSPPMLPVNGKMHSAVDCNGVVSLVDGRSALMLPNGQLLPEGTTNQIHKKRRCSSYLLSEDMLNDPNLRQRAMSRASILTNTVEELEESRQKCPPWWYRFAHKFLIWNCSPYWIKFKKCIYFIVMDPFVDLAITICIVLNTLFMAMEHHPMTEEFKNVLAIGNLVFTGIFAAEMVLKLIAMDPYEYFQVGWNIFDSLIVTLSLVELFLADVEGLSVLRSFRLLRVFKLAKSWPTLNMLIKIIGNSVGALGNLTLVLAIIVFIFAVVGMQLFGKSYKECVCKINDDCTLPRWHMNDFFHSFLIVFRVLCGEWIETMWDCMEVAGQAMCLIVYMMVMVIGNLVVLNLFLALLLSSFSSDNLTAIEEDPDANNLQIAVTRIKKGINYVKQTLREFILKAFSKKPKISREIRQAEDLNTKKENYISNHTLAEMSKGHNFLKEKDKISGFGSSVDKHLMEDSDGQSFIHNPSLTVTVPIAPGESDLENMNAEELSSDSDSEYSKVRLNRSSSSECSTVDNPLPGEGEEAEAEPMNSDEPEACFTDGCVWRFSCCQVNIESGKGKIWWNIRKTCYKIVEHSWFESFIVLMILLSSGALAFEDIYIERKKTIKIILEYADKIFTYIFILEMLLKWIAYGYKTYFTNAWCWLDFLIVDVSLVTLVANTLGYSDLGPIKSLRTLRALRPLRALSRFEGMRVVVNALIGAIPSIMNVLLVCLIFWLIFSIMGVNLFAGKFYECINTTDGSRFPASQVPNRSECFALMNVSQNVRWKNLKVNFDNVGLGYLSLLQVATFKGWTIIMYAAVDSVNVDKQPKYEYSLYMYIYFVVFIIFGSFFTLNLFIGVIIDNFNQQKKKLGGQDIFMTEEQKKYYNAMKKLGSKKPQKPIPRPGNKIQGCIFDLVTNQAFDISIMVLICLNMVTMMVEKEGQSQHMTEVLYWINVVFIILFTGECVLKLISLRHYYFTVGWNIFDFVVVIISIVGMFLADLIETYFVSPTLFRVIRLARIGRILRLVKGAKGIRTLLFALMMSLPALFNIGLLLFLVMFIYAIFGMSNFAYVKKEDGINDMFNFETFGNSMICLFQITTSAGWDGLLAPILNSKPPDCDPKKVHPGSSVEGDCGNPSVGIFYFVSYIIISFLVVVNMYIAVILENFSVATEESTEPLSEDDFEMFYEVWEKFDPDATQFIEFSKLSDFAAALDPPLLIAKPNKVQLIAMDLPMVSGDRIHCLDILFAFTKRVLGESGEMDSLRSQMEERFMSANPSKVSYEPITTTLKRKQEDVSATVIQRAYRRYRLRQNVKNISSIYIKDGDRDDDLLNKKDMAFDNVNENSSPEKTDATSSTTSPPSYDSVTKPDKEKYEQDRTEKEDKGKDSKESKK
T1 sequence (Q07699 19-218 partner): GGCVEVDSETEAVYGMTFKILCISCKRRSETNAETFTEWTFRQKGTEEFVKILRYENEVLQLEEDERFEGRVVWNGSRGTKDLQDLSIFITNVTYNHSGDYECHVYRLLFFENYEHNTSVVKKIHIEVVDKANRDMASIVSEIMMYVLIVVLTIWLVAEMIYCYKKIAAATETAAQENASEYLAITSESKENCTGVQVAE
Source text: (§1) Electrophysiological Assay (EP) (In Vitro Assay)
(§2) Patch voltage clamp electrophysiology allows for the direct measurement and quantification of block of voltage-gated sodium channels (NaV's), and allows the determination of the time- and voltage-dependence of block which has been interpreted as differential binding to the resting, open, and inactivated states of the sodium channel (Hille, B., Journal of General Physiology (1977), 69: 497-515).
(§3) The following patch voltage clamp electrophysiology studies were performed on representative compounds of the invention using human embryonic kidney cells (HEK), permanently transfected with an expression vector containing the full-length cDNA coding for the desired human sodium channel α-subunit, grown in culture media containing 10% FBS, 1% PSG, and 0.5 mg/mL G418 at 37° C. with 5% CO2. […] NaV1.7 and NaV1.5 cDNAs (NM_002977 and AC137587; SCN5A, respectively) were stably expressed in HEK-293 cells. The β1 subunit was coexpressed in both the NaV1.7 and NaV1.5 cell lines.
(§4) Sodium currents were measured using the patch clamp technique in the whole-cell configuration using either a PatchXpress automated voltage clamp or manually using an Axopatch 200B (Axon Instruments) or Model 2400 (A-M systems) amplifier. The manual voltage clamp protocol was as follows: Borosilicate glass micropipettes were fire-polished to a tip diameter yielding a resistance of 2-4 Mohms in the working solutions. The pipette was filled with a solution comprised of: 5 mM NaCl, 10 mM CsCl, 120 mM CsF, 0.1 mM CaCl2, 2 mM MgCl2, 10 mM HEPES, 10 mM EGTA; and adjusted to pH 7.2 with CsOH. The external solution had the following composition: 140 mM NaCl, 5 mM KCl, 2 mM CaCl2, 1 mM MgCl2, 10 mM HEPES; and adjusted to pH 7.4 with NaOH. In some studies, the external sodium was reduced by equimolar replacement with choline. Osmolarity in the CsF internal and NaCl external solutions was adjusted to 300 mOsm/kg and 310 mOsm/kg with glucose, respectively. All recordings were performed at ambient temperature in a bath chamber with a volume of 150 μL. Control sodium currents were measured in 0.5% DMSO. Controls and representative compounds of the invention were applied to the recording chamber through a 4-pinch or 8-pinch valve bath perfusion system manufactured by ALA Scientific Instruments.
(§5) Currents were recorded at 40 kHz sampling frequency, filtered at […], and stored using a Digidata-1322A analogue/digital interface with the pClamp software (Axon Instruments). Series resistance compensation was applied (60-80%). […] All statistics in this study are given as mean±SD.
(§6) The membrane potential was maintained at a voltage where inactivation of the channel is complete (which was −60 mV for both NaV1.7 and NaV1.5). The voltage is then stepped back to a very negative (Vhold=[…]) voltage for 20 ms and then a test pulse is applied to quantify the compound block. The 20 ms brief repolarization was long enough for compound-free channels to completely recover from fast inactivation, but the compound-bound channels recovered more slowly such that negligible recovery could occur during this interval. The percent decrease in sodium current following wash-on of compound was taken as the percent block of sodium channels.

hNav1.7 = molecular target: T2, hNav1.7 (Homo sapiens, UniProt Q15858); test: Tritiated sulfonamide competitive binding to membranes from cells expressing hNav1.7 and the β1 subunit (LBA); settings: competition with 100 pM [3H]compound, 18 h, room temperature; read-out: Nav1.7 (LBA)
T2 construct: expressed in transfected cells
T2 sequence (Q15858 1-1977 isoform Q15858-3): as the sequence (Q15858 1-1977 isoform Q15858-3) above
T2 sequence (Q07699 19-218 partner): as the sequence (Q07699 19-218 partner) above
Experimental: Tritiated Sulfonamide Binding to Membranes Isolated from Cells that Heterologously Express hNav1.7 and the β1 Subunit
Preparation of membranes containing recombinantly expressed sodium channels: Frozen recombinant cell pellets were thawed on ice and diluted to 4 times the cell pellet weight with ice cold 50 mM Tris HCl, pH 7.4 buffer. The cell suspensions were homogenized on ice using a motorized glass dounce homogenizer. Homogenates were further diluted 8.4 times with ice cold 50 mM Tris HCl, pH 7.4 buffer and then centrifuged at 200×g at 4° C. for 15 min. The supernatants were collected and centrifuged at 10000×g at 4° C. for 50 min. The pellets were then re-suspended in 100 mM NaCl, 20 mM Tris HCl, pH 7.4 buffer containing 1% v/v protease inhibitors (Calbiochem) and re-homogenized on ice. The homogenized membranes were then processed through a syringe equipped with a 26 gauge needle. Protein concentrations were determined by Bradford Assay and the membranes were stored at −80° C.
Saturation experiments. A competitive NaV1.7 inhibitor having a methyl group was tritiated. Three tritiums were incorporated in place of methyl hydrogens to generate [^3H]compound. Binding of this radioligand was preformed in 5 mL borosilicate glass test tubes at room temperature. Binding was initiated by adding membranes to increasing concentrations of [^3H]compound in 100 mM NaCl, 20 mM Tris HCl, pH 7.4 buffer containing 0.01% w/v bovine serum albumin (BSA) for 18 h. Non-specific binding was determined in the presence of 1 μM unlabelled compound. After 18 h, the reactants were filtered through GF/C glass fiber filters presoaked in 0.5% w/v polyethylene imine. Filters were washed with 15 mL ice cold 100 mM NaCl, 20 mM Tris HCl, pH 7.4 buffer containing 0.25% BSA to separate bound from free ligand. [^3H]compound bound to filters was quantified by liquid scintillation counting.
Binding reactions were performed in 96-well polypropylene plates at room temperature for 18 h. In 360 μL, membranes were incubated with 100 pM [^3H]compound and increasing concentrations of Test Compound. Non-specific binding was defined in the presence of 1 μM unlabelled compound. Reactions were transferred and filtered through 96-well glass fiber/C filter plates presoaked with 0.5% polyethylene imine. The filtered reactions were washed 5 times with 200 μL ice cold buffer containing 0.25% BSA. Bound radioactivity was determined by liquid scintillation counting.
Data Analysis: For saturation experiments, non-specific binding was subtracted from total binding to provide specific binding and these values were recalculated in terms of pmol ligand bound per mg protein. Saturation curves were constructed and dissociation constants were calculated using the single site ligand binding model: Beq=(Bmax*X)/(X+Kd), where Beq is the amount of ligand bound at equilibrium, Bmax is the maximum receptor density, Kd is the dissociation constant for the ligand, and X is the free ligand concentration. For competition studies percent inhibition was determined and IC50 values were calculated using a 4 parameter logistic model (% inhibition=(A+((B−A)/(1+((x/C)^D)))) using XLfit, where A and B are the maximal and minimum inhibition respectively, C is the IC50 concentration and D is the (Hill) slope.

NaV1.5 = molecular target: T3, NaV1.5 (Homo sapiens, UniProt Q14524); test: Patch voltage clamp electrophysiology assay (EP), NaV1.5 in HEK-293 cells; format: cell-based; settings: HEK-293, β1 coexpressed, held at -60 mV (inactivated state)
T3 construct: expression vector containing the full-length cDNA coding for the desired human sodium channel α-subunit; expressed in transfected cells; host or cells: HEK-293
T3 sequence (Q14524 whole entry): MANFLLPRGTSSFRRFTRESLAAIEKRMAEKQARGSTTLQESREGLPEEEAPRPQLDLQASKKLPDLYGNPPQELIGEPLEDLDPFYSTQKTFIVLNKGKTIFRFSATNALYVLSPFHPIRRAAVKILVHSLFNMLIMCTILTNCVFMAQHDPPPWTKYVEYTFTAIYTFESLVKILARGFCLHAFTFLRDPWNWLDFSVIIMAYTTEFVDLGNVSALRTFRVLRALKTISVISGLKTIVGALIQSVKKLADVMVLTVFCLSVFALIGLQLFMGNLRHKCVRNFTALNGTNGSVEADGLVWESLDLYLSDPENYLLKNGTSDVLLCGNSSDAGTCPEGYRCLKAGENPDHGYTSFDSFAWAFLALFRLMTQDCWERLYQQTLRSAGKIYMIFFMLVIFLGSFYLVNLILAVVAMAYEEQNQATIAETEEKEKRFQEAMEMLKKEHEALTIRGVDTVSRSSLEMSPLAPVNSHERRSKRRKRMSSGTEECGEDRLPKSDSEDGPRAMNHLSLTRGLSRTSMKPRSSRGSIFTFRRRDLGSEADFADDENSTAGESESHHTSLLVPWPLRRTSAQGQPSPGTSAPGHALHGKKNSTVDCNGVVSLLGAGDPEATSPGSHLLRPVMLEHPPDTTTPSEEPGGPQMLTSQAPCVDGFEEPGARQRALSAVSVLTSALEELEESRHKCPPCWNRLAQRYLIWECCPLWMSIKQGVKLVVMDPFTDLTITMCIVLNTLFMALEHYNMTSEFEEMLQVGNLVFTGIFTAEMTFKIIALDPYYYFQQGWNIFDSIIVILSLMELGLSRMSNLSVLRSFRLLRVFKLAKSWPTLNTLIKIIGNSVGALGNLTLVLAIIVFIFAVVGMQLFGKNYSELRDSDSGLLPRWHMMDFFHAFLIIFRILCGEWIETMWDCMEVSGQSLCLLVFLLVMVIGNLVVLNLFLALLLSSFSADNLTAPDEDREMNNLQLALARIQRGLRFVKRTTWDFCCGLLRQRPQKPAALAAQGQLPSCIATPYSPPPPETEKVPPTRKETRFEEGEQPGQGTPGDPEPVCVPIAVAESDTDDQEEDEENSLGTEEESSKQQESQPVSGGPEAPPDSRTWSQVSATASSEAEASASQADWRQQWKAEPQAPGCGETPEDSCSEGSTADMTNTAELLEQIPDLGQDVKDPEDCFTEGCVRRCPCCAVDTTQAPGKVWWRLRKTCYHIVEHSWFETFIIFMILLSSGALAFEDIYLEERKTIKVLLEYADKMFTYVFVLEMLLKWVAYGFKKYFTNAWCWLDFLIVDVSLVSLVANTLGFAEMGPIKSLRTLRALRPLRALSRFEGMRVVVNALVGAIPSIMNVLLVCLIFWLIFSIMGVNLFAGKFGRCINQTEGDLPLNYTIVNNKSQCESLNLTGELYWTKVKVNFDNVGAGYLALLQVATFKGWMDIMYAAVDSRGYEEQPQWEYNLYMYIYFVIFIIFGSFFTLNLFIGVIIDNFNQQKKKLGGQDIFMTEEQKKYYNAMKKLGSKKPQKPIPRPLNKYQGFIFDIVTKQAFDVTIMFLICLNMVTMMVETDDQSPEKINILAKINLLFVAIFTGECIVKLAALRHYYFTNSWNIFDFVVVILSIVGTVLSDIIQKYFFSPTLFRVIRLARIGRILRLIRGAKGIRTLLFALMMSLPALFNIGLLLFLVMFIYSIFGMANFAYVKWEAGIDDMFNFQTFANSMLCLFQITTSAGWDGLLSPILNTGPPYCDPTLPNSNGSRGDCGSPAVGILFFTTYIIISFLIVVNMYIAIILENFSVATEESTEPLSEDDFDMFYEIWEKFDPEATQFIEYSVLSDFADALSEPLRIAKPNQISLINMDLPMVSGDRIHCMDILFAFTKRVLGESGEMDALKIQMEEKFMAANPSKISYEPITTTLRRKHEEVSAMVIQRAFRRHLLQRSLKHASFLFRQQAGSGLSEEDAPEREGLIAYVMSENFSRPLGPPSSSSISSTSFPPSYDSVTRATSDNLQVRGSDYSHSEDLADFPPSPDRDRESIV
Source text: as §1, §2, §3, §4, §5, §6

IC50 (NaV1.7) | IC50 (hNav1.7) | Compound | IC50 (NaV1.5) | IC50 (NaV1.5; human, pH 7.4)
2000 nM | 340 nM | Cc1nn(C2CCC(C)CC2)c2cc(F)c(C(=O)NS(C)(=O)=O)cc12 (stereo not shown) [Example 31, 6-fluoro-3-methyl-1-(4-methylcyclohexyl)-N-(methylsulfonyl)-1H-indazole-5-carboxamide] | – | –
1200 nM | 410 nM | Cc1nn(CC23CC4CC(CC(C4)C2)C3)c2cc(F)c(C(=O)N[S@TB2](C)(=O)=O)cc12 [Example 40, 1-(((1s,3s)-adamantan-1-yl)methyl)-6-fluoro-3-methyl-N-(methylsulfonyl)-1H-indazole-5-carboxamide] | – | ≥ 30000 nM
39 nM | 25 nM | Cc1nn(C2CCC(C(C)C)CC2)c2cc(F)c(C(=O)NS(=O)(=O)N3CCC3)cc12 (stereo not shown) [Example 30, N-(azetidin-1-ylsulfonyl)-6-fluoro-1-(4-isopropylcyclohexyl)-3-methyl-1H-indazole-5-carboxamide] | – | –
1000 nM | 350 nM | Cc1nn(C2CCC(C)CC2)c2cc(F)c(C(=O)NS(=O)(=O)N3CCC3)cc12 (stereo not shown) [Example 29, N-(azetidin-1-ylsulfonyl)-6-fluoro-3-methyl-1-(4-methylcyclohexyl)-1H-indazole-5-carboxamide] | – | –
140 nM | 23 nM | Cc1nn(C2CCC(C(C)(C)C)CC2)c2cc(F)c(C(=O)NS(=O)(=O)N3CCC3)cc12 (stereo not shown) [Example 27, N-(azetidin-1-ylsulfonyl)-1-(4-(tert-butyl)cyclohexyl)-6-fluoro-3-methyl-1H-indazole-5-carboxamide] | – | –
320 nM | 47 nM | Cc1nn(C2CCC(C(C)(C)C)CC2)c2cc(F)c(C(=O)NS(C)(=O)=O)cc12 (stereo not shown) [Example 28, 1-(4-(tert-butyl)cyclohexyl)-6-fluoro-3-methyl-N-(methylsulfonyl)-1H-indazole-5-carboxamide] | – | –

The next lines start with the molecule.

Compound | IC50 (NaV1.7) | IC50 (hNav1.7) | IC50 (NaV1.5) | IC50 (NaV1.5; human, pH 7.4)
Cc1nn(C2CCN([C@H](C)c3cc(Cl)cc(Cl)c3)CC2)c2cc(F)c(C(=O)NS(=O)(=O)C3CC3)cc12 [Example 9, (R)-N-(cyclopropylsulfonyl)-1-(1-(1-(3,5-dichlorophenyl)ethyl)piperidin-4-yl)-6-fluoro-3-methyl-1H-indazole-5-carboxamide] | 46 nM | 6 nM | 8300 nM | –
Cc1nn(C2CCN(Cc3cc(C(F)(F)F)cc(Cl)c3F)CC2)c2cc(F)c(C(=O)NS(C)(=O)=O)cc12 [Example 1, 1-(1-(3-chloro-2-fluoro-5-(trifluoromethyl)benzyl)piperidin-4-yl)-6-fluoro-3-methyl-N-(methylsulfonyl)-1H-indazole-5-carboxamide 2,2,2-trifluoroacetate] | 680 nM | 34 nM | 22000 nM | –
Cc1nn(C2CCN(Cc3cc(Cl)cc(OC(F)(F)F)c3)CC2)c2cc(F)c(C(=O)NS(=O)(=O)C3CC3)cc12 [Example 5, 1-(1-(3-chloro-5-(trifluoromethoxy)benzyl)piperidin-4-yl)-N-(cyclopropylsulfonyl)-6-fluoro-3-methyl-1H-indazole-5-carboxamide] | 51 nM | 6 nM | 2400 nM | –
Cc1nn(-c2cnc(OCC(C)C)c(Cl)c2)c2cc(F)c(C(=O)NS(C)(=O)=O)cc12 [Example 39, 1-(5-chloro-6-isobutbxypyridin-3-yl)-6-fluoro-3-methyl-N-(methylsulfonyl)-1H-indazole-5-carboxamide] | 39 nM | 8 nM | – | ≥ 30000 nM
Cc1nn([C@@H]2CCN(Cc3cc(Cl)ccc3C(F)(F)F)C2)c2cc(F)c(C(=O)NS(=O)(=O)C3CC3)cc12 [Example 12, (R)-1-(1-(5-chloro-2-(trifluoromethyl)benzyl)pyrrolidin-3-yl)-N-(cyclopropylsulfonyl)-6-fluoro-3-methyl-1H-indazole-5-carboxamide 2,2,2-trifluoroacetate] | 32 nM | 5 nM | 510 nM | –
Cc1nn(C2CCN(Cc3cc(Cl)cc(Cl)c3)CC2)c2cc(F)c(C(=O)NS(=O)(=O)C3CC3)cc12 [Example 6, N-(cyclopropylsulfonyl)-1-(1-(3,5-dichlorobenzyl)piperidin-4-yl)-6-fluoro-3-methyl-1H-indazole-5-carboxamide 2,2,2-trifluoroacetate] | 72 nM | 14 nM | 7000 nM | –
Cc1nn(C23CC4CC(CC(C4)C2)C3)c2cc(F)c(C(=O)NS(=O)(=O)N3CCC3)cc12 [Example 35, 1-((3s,5s,7s)-adamantan-1-yl)-N-(azetidin-1-ylsulfonyl)-6-fluoro-3-methyl-1H-indazole-5-carboxamide] | 1000 nM | 180 nM | – | ≥ 30000 nM
Cc1nn(-c2ccc3c(c2)CCCC3)c2cc(F)c(C(=O)NS(C)(=O)=O)cc12 [Example 26, 6-fluoro-3-methyl-N-(methylsulfonyl)-1-(5,6,7,8-tetrahydronaphthalen-2-yl)-1H-indazole-5-carboxamide] | 160 nM | 100 nM | – | –
Cc1nn(C2CCOCC2)c2cc(F)c(C(=O)NS(=O)(=O)N3CCC3)cc12 [Example 32, N-(azetidin-1-ylsulfonyl)-6-fluoro-3-methyl-1-(tetrahydro-2H-pyran-4-yl)-1H-indazole-5-carboxamide] | – | – | – | ≥ 30000 nM
Cc1nn(-c2ccc3c(c2)CCCC3)c2cc(F)c(C(=O)NS(=O)(=O)N3CCC3)cc12 [Example 25, N-(azetidin-1-ylsulfonyl)-6-fluoro-3-methyl-1-(5,6,7,8-tetrahydronaphthalen-2-yl)-1H-indazole-5-carboxamide] | 44 nM | 260 nM | – | –
Cc1nn(C2CCOCC2)c2cc(F)c(C(=O)NS(C)(=O)=O)cc12 [Example 34, 6-fluoro-3-methyl-N-(methylsulfonyl)-1-(tetrahydro-2H-pyran-4-yl)-1H-indazole-5-carboxamide] | – | – | – | ≥ 30000 nM
